A short description of data set [1]: Oxygen radical absorbance capacity with fluorescein (ORAC-FL) assay. Here is the method:
Oxidative stress is another crucial event in AD pathogenesis. In order to determine antioxidant activities of our synthetic compounds, the oxygen radical absorbance capacity method with fluorescein (ORAC-FL) assay was performed. with Trolox (6-hydroxy-2,5,7,8-tetramethylchroman-2-carboxylic acid) as the standard, and their antioxidant activity was expressed as Trolox equivalents.
The antioxidant activities of the compounds in vitro were determined by the oxygen radical absorbance capacity fluorescein (ORAC-FL) assay. The tested compounds and (±)-6-hydroxy-2,5,7,8-tetramethylchroman-2-carboxylic acid (Trolox) were dissolved in DMSO at a concentration of 10 mM, and then diluted with 75 mM potassium phosphate buffer (pH 7.4) to 50 μM and 10 μM for use. The fluorescein (FL) stock solution (3.4 mM) was diluted with the same buffer to 136 nM. All the assays were conducted with 75 mM potassium phosphate bufffer (pH 7.4), and the final reaction mixture was 200 μL.
The mixture of compounds (or buffer) (20 μL) and fluorescein (FL, 120 μL) were incubated for 15 min at 37 °C in a black 96-well plate. Then 2,2′-azobis-(amidino-propane)-dihydrochloride (AAPH) solution (60 μL, 40 mM) was rapidly added to the reaction mixture. The fluorescence was recorded every 5 min for 240 min at 485 nm (excitation wavelength) and 535 nm (emission wavelength) (Varioskan Flash Multimode Reader, Thermo Scientific, Waltham, MA, USA), and each sample was prepared and measured for three times independently. […] The net AUC for a sample was calculated using the expression net AUC = AUCsample − AUCblank, The ORAC-FL value of each sample was calculated using the equation of net AUCsample/(AUCTrolox – AUCblank), which was expressed as Trolox equivalents.

In the next data set the target is T1, Aβ1–42 (Homo sapiens, UniProt P05067).
T1 construct: Aβ1–42 (Sigma, St. Louis, MO, USA; counterion, NaOH) stock solution was prepared by dissolving Aβ1–42 peptide in ammonium hydroxide; purchased Sigma
Nature of the data set: Inhibition of self-induced Aβ1–42 aggregation (ThT fluorescence assay). Type of data set: biochemical. Here is the method:
The formation and aggregation of Aβ1–42 in the brain leads to neurotoxicity in AD. In order to evaluate the activity of our new synthetic compounds to inhibit Aβ1–42 self-induced aggregation, the thioflavin (ThT) fluorescence assay was performed.
All ThT experiments were performed according to our previously published methods. Aβ1–42 (Sigma, St. Louis, MO, USA; counterion, NaOH) stock solution was prepared by dissolving Aβ1–42 peptide in ammonium hydroxide (1% v/v), and diluting with 20 mM phosphate buffer (pH 7.4) to 100 μM. The tested compounds were firstly dissolved in DMSO at a concentration of 10 mM, and then diluted with 20 mM phosphate buffer (pH 7.4) to 40 μM.
For the inhibition of self-induced Aβ1–42 aggregation. Aβ1–42 peptide (2 μL, 50 μM, final concentration) with the tested compound (2 μL, 20 μM, final concentration) or 20 mM phosphate buffer (2 μL) was incubated in 20 mM phosphate buffer (pH 7.4) at 37 °C for 72 h. After incubation, the samples were diluted to a final volume of 36 μL with 50 mM glycine-NaOH buffer (pH 8.5) containing 5 μM Thioflavin T. Fluorescence signal was measured (excitation wavelength 450 nm, emission wavelength 485 nm, and slit widths set to 5 nm) on a monochromator-based multimode microplate reader ([…] M1000, TECAN, Hombrechtikon, Switzerland), adapted for 384-well microtiter plates. […] Each compound was examined in triplicate.

Data set [2] is described as follows: Cytotoxicity on SH-SY5Y cells (MTT). It counts as cell-based, human. Particulars: human, SH-SY5Y neuroblastoma cells; MTT, 24 h; mean ± SEM of three measurements. Here is the method:
The cytotoxicity of our synthesized compounds was examined in human neuroblastoma SH-SY5Y cells. The cell viability was determined by using methyl thiazolyl tetrazolium (MTT) colorimetry, the cells were treated with different concentrations of compounds (0–100 μM). The result is shown in the Supplementary Materials (Table S1).
The cytotoxicities of the compounds were evaluated using the MTT assay. SH-SY5Y cells were subcultured in 96-well plates at a seeding density of 1 × 10^4 cells per well. After 24 h, the medium was removed and treated with different concentrations of tested compounds for 24 h at 37 °C. The survival of cells was determined with MTT assay. Then 80 μL of medium and 20 μL of MTT (0.5 mg/mL, final concentration) were added to each well and incubated for another 4 h. After the removal of MTT, the formazan crystals were dissolved in DMSO. The amount of formazan was measured using a microculture plate reader at the wavelength of 570 nm. Each concentration was performed in triplicate.

Another data set relates to SH-SY5Y cells. Nature of the data set: Cellular ROS detection (DCFH-DA) in SH-SY5Y cells treated with t-BuOOH. It counts as cell-based, human. As to conditions: compound 2.5 μM; 0.1 mM t-BuOOH; compared with Trolox. Here is the method: To further investigate their antioxidant activity in SH-SY5Y cells, cellular ROS detection assay based on dichlorofluorescein diacetate (DCFH-DA) was performed. with Trolox and N-acetyl-L-cysteine (NAC) as reference compounds.
SH-SY5Y cells were maintained in Dulbecco’s modified Eagle’s medium (DEME) and supplemented with 1 mM glutamine, 10% fetal calf serum, 100 U/mL penicillin, and 100 μg/mL streptomycin. The cultures were maintained at 37 °C in a humidified incubator containing 5% CO2 and were passaged twice weekly.
The antioxidant activity of the compounds in SH-SY5Y cells were tested with the fluorescent probe (2′,7′-dichlorofluorescein diacetate, DCFH-DA) as reported with some variation. SH-SY5Y cells were sub-cultured in 96-well plates at a seeding density of 1 × 10^4 cells per well for 24 h, then the medium was removed, the tested compounds (2.5 μM) was added and incubated for another 24 h at 37 °C. After that, the cells were washed with PBS and incubated with 5 μM DCFH-DA in PBS at 37 °C in 5% CO2 for 30 min. Then DCFH-DA was removed, the cells were washed three times and incubated with 0.1 mM t-BuOOH in PBS for 30 min. After the incubation, the cell fluorescence from each well was measured at 485 nm excitation and 535 nm emission with a monochromator based multimode microplate reader ([…] M1000).

[3] abbreviates: inhibitor 20 μM, Aβ1–42 50 μM, ThT, 37 °C, 72 h, mean ± SD.

Results on 14 compounds are retold here after article PMC6321145 (Molecules, 2018).

T1 sequence (P05067 672-713): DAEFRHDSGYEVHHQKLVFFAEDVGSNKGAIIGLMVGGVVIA

A word on the inhibition: it is the percentage by which the read-out fell short of the control. Read a low inhibition as a response near the control. Consider `CCN(CC)c1ccc(/C=C/c2cc(N3CCCCC3)c3ccccc3n2)cc1` [Compound 4b1, reference compound], for which the ORAC in data set [1] (compound 1 μM) was 3.70 ± 0.11 μmol of Trolox equivalents/μmol of tested compounds; in data set [1] (compound 5 μM), 3.91 ± 0.11 μmol of Trolox equivalents/μmol of tested compounds. The inhibition at 20 µM against Aβ1–42 (setting [3]) amounted to 83.5 ± 1.4%.
For the compound `CN(C)c1ccc(/C=C/c2cc(N3CCCCC3)c3ccccc3n2)cc1` [Compound 4b2, reference compound], the results for the ORAC in data set [1] (compound 1 μM) and in data set [1] (compound 5 μM) were 2.91 ± 0.11 μmol of Trolox equivalents/μmol of tested compounds and 3.12 ± 0.10 μmol of Trolox equivalents/μmol of tested compounds, respectively. The compound also returned an inhibition at 20 µM at Aβ1–42 (setting [3]) of 81.2 ± 0.8%.
For orientation: IC50 means the point on the concentration scale where inhibition reaches its midpoint. A word on the melting point: it is the temperature, or range, at which the solid turns liquid. The compound `CCN(CC)CCCNc1cc(/C=C/c2ccc(N(C)C)cc2)nc2ccccc12` [Compound 6a2, (E)-N^1-(2-(4-(Dimethylamino)styryl)quinolin-4-yl)-N^3,N^3-diethylpropane-1,3-diamine] came in with a melting point of 168.5 to 170.1 °C. The compound also showed an IC50 at 24 h in data set [2] of 187.5 ± 0.2 µM. The ORAC in data set [1] (compound 1 μM) is 5.74 ± 0.09 μmol of Trolox equivalents/μmol of tested compounds. Besides, at 20 µM the inhibition against Aβ1–42 (setting [3]) was 88.5 ± 1.5%.
`CCN(CC)CCCNc1cc(/C=C/c2c[nH]c3ccccc23)nc2ccccc12` [Compound 6a3, (E)-N^1-(2-(2-(1H-Indol-3-yl)vinyl)quinolin-4-yl)-N^3,N^3-diethylpropane-1,3-diamine] registered a melting point of 194.3 to 195.1 °C. This compound gave an IC50 at 24 h in data set [2] of 147.8 ± 0.3 µM. The ORAC in data set [1] (compound 1 μM) was 1.26 ± 0.06 μmol of Trolox equivalents/μmol of tested compounds. Further, the ORAC in data set [1] (compound 5 μM) is 1.73 ±0.07 μmol of Trolox equivalents/μmol of tested compounds. Also, the inhibition at 20 µM on Aβ1–42 (setting [3]) is 84.3 ± 2.1%.
With `CN(C)CCCNc1cc(/C=C/c2ccc(N(C)C)cc2)nc2ccccc12` [Compound 6b2, (E)-N^1-(2-(4-(Dimethylamino)styryl)quinolin-4-yl)-N^3,N^3-dimethylpropane-1,3-diamine], the melting point is 151.2 to 153.3 °C. In addition, in data set [2], the IC50 at 24 h turned out to be 228 µM. For the same compound, the ORAC in data set [1] (compound 1 μM) is recorded as 5.61 ± 0.09 μmol of Trolox equivalents/μmol of tested compounds. Further, the ORAC in data set [1] (compound 5 μM) is given as 5.88 ± 0.01 μmol of Trolox equivalents/μmol of tested compounds. The IC50 at Aβ1–42 (ThT fluorescence method, mean ± SD of three experiments, read-out: IC50 against self-induced Aβ1–42 aggregation) was 6.1 ± 0.8 µM. Besides, the inhibition at 20 µM against Aβ1–42 (setting [3]) came out at 92.1 ± 1.3%.
Turning to `CCN(CC)c1ccc(/C=C/c2cc(NCCN(C)C)c3ccccc3n2)cc1` [Compound 6c1, (E)-N^1-(2-(4-(Diethylamino)styryl)quinolin-4-yl)-N^2,N^2-dimethylethane-1,2-diamine], the melting point fell in the range of 145.2 to 147.1 °C. This compound registered an IC50 at 24 h in data set [2] of 154.3 ± 0.5 µM. Moreover, the ORAC in data set [1] (compound 1 μM) is reported as 2.79 ± 0.04 μmol of Trolox equivalents/μmol of tested compounds. Also, the ORAC in data set [1] (compound 5 μM) is 3.24 ± 0.10 μmol of Trolox equivalents/μmol of tested compounds. At Aβ1–42 (setting [3]), this compound showed an inhibition at 20 µM of 85.1 ± 1.4%.
The matching figures for `CN(C)CCNc1cc(/C=C/c2ccc(N(C)C)cc2)nc2ccccc12` [Compound 6c2, (E)-N^1-(2-(4-(Dimethylamino)styryl)quinolin-4-yl)-N^2,N^2-dimethylethane-1,2-diamine]: 148.9 to 149.6 °C, 127.5 ± 0.4 µM, 3.28 ± 0.09 μmol of Trolox equivalents/μmol of tested compounds, 3.53 ± 0.07 μmol of Trolox equivalents/μmol of tested compounds and 83.9 ± 2.4%.
For `CCCCNc1cc(/C=C/c2ccc(N(CC)CC)cc2)nc2ccccc12` [Compound 6d1, (E)-N-Butyl-2-(4-(diethylamino)styryl)quinolin-4-amine], in that order: 172.5 to 173.8 °C, 119.3 ± 0.7 µM, 1.38 ± 0.02 μmol of Trolox equivalents/μmol of tested compounds, 1.56 ± 0.05 μmol of Trolox equivalents/μmol of tested compounds and 80.5 ± 1.4%.
The matching figures for `CCCCNc1cc(/C=C/c2ccc(N(C)C)cc2)nc2ccccc12` [Compound 6d2, (E)-N-Butyl-2-(4-(dimethylamino)styryl)quinolin-4-amine]: 165.3 to 167.1 °C, 112.4 ± 0.6 µM, 0.75 ± 0.06 μmol of Trolox equivalents/μmol of tested compounds, 0.95 ± 0.09 μmol of Trolox equivalents/μmol of tested compounds and 79.2 ± 2.3%.
Take `CCN(CC)c1ccc(/C=C/c2cc(NCC(C)C)c3ccccc3n2)cc1` [Compound 6e1, (E)-2-(4-(Diethylamino)styryl)-N-isobutylquinolin-4-amine]: the melting point was 170.2 to 171.7 °C. In data set [2], this compound gave an IC50 at 24 h of 143.6 ± 0.7 µM. Further, in data set [1] (compound 1 μM), the ORAC is given as 1.71 ± 0.05 μmol of Trolox equivalents/μmol of tested compounds. In addition, in data set [1] (compound 5 μM), the ORAC is 1.92 ± 0.11 μmol of Trolox equivalents/μmol of tested compounds. Further, at Aβ1–42 (setting [3]), at 20 µM the inhibition was 77.9 ± 1.3%.
For `CC(C)CNc1cc(/C=C/c2ccc(N(C)C)cc2)nc2ccccc12` [Compound 6e2, (E)-2-(4-(Dimethylamino)styryl)-N-isobutylquinolin-4-amine], in that order: 171.8 to 173.2 °C, 141.9 ± 0.5 µM, 1.68 ± 0.06 μmol of Trolox equivalents/μmol of tested compounds, 1.78 ± 0.05 μmol of Trolox equivalents/μmol of tested compounds and 77.5 ± 1.5%.
Regarding `COc1cc(/C=C/C(=O)CC(=O)/C=C/c2ccc(O)c(OC)c2)ccc1O` [Cur, curcumin, reference compound], on Aβ1–42 (setting [3]), the “Aβ1–42 Aggregation Inhibition (%)” value stood at 49.3 ± 1.2%.
In the case of `CC(=O)N[C@@H](CS)C(=O)O` [NAC, N-acetyl-L-cysteine, reference compound], in the data set with SH-SY5Y cells, the “Antioxidant activity in SH-SY5Y cells (ROS generation, DCFH-DA fluorescence)” value is “didn’t remove ROS generation”.
On the same count and under the same terms, to `Cc1c(C)c2c(c(C)c1O)CCC(C)(C(=O)O)O2` (stereo not drawn) [Trolox, 6-hydroxy-2,5,7,8-tetramethylchroman-2-carboxylic acid, reference compound] belongs “decrease the intensity of fluorescence”.
